Tests used:
[1] = system: T1, lipid II consumption by E. coli PBP1b; assay: In vitro peptidoglycan synthesis assay with lipid II substrate (TLC); type: biochemical; conditions: 4 equivalents of peptide relative to lipid II; 30 °C, 2 h; thin layer chromatography; mixture 1 : 1
T1 construct: made in house
Experimental: A solution of lipid II (1.5 nmol) in 1 : 1 CHCl3 : MeOH that was prepared by a previously disclosed procedure[87] was added to a low binding Eppendorf tube and concentrated to remove any organic solvent. Triton X-100 (1% v/v, 2 μL) was added to the residue and the mixture was sonicated briefly before diluting with 37.5 μL of reaction buffer (20 mM MES, 2 mM MgCl2, 2 mM CaCl2, pH = 5.5). The solution was then transferred to a new low binding Eppendorf tube containing lanthipeptide. The mixture was vortexed and briefly sonicated to ensure dissolution. The mixtures were incubated for 10 min at room temperature before adding PBP1b (6 μg), which was prepared as described elsewhere,[77] and then incubated at 30 °C. After 2 h, 150 μL nBuOH : AcOH-pyridine (2 : 1) was added to the reaction mixture and the organic layer was removed, washed with 40 μL of water and then concentrated. The residue was dissolved in 12 μL of 1 : 1 MeOH : CHCl3 and 3 μL was deposited onto a silica gel plate. The TLC plate was developed in mobile phase (88 : 48 : 10 : 1 CHCl3 : MeOH : H2O : NH4OH) for 10 min before drying and staining the plate with cerium ammonium sulfate. The plate was documented immediately after the staining procedure was completed.

[2] = Dynamic light scattering of aggregates; type: physicochemical; conditions: phosphate buffered saline pH = 7.4, room temperature, total peptide 1 μM; for average diameter of aggregates (DLS): SDS-free
Experimental: Fig. 6 Exploring the quorum sensing mechanism of bibacillin 1. (A) Assays to assess whether bibacillin 1 triggers the CylR1/R2 system. A reporter strain of E. faecalis with LacZ expression under the control of the CylR1/R2 system was seeded into soft agar containing X-gal. Next, 300 pmol of Bib1α, Bib1β, and Bib1βDha either separately or as 1 : 1 mixtures were deposited onto the soft agar layer. Nisin (300 pmol) and CylLS′′ (30 pmol) were used as negative and positive controls, respectively. (B) Size distributions obtained using dynamic light scattering showing the oligomeric states of Bib1α, Bib1β, and Bib1α : Bib1β (1 : 1) in phosphate buffered saline (pH = 7.4) at room temperature. In each case, the total peptide concentration was 1 μM.
Enzyme mixtures used for molecular biology were purchased from New England BioLabs (NEB) (Ipswich, MA). Chemicals were purchased from Sigma-Aldrich (St. Louis, MO). Growth media were purchased from Becton, Dickinson and Company (Franklin Lake, NJ) or Fisher Scientific (Pittsburgh, PA). Single stranded DNA used as primers for PCR were purchased from Integrated DNA Technologies (Newark, NJ). Gene fragments were purchased from Twist Bioscience (San Francisco, CA). The sequences of primers and gene fragments can be found in Tables S2 and S3 (ESI ^†), respectively. Whole plasmid sequencing was performed by Plasmidsaurus using Oxford Nanopore Technology with custom analysis and annotation. Matrix-assisted laser desorption/ionization time-of-flight mass spectrometry (MALDI-TOF MS) analysis was performed on a Bruker UltrafleXtreme MALDI-TOF mass spectrometer (Bruker Daltonics) at the University of Illinois School of Chemical Sciences Mass Spectrometry. All samples analyzed by MALDI-TOF MS were co-crystallized with Super DHB MALDI matrix purchased from Sigma-Aldrich. Semi-preparative reversed phase HPLC (R-HPLC) was performed on an Agilent 1260 infinity II LC system. Fluorescence emission intensities and optical densities were determined using a Biotek Synergy H4. Dynamic light scattering (DLS) analysis was performed on a Zetasizer Nanoseries (Malvern Panalytical,). CylLS′′ and CylLL′′ were prepared using a previously described procedure.[36] Nisin was isolated from commercially available crude extracts of Lactococcus lactis (Sigma Aldrich).

[3] = system: M. luteus ATCC 4698; assay: Time-kill assay; type: cell-based, Micrococcus luteus; conditions: total peptide 20 μM, 30 °C; for killing activity in time-kill assay: mixture 1 : 1
Experimental: The solutions were incubated at 30 °C with shaking. At each time point, 20 μL was removed from each culture and immediately streaked onto tryptic soy broth agar plates. The plates were incubated at 30 °C for 36–48 h and colonies were counted.

[4] = system: rabbit erythrocytes; assay: Agar diffusion hemolysis assay; type: cell-based; conditions: 300 pmol peptide spotted (3 μL of 100 μM in PBS); 5% (v/v) rabbit erythrocytes in 0.7% BHI agar; 37 °C, 16 h; mixtures 1 : 1
Experimental: Cytolysin was used as a positive control.
Defibrinated rabbit erythrocytes (Hemostat) were washed by 5-fold dilution in cold sterile PBS, followed by centrifugation at 1000g for 10 min and decanting. This process was repeated until the supernatant was clear. The washed erythrocytes were diluted to a concentration of 5% (v/v) in molten BHI containing 0.7% agar cooled to 50 °C and the mixture was immediately deposited onto a warm 2% BHI agar plate. After setting at room temperature for at least 30 min, 3 μL of peptide solution diluted in PBS to a concentration of 100 μM was deposited onto the agar plate and the plate was allowed to stand for another 30 min. The plate was then incubated at 37 °C for 16 h before documentation.

[5] = system: rabbit erythrocytes; type: cell-based; conditions: total peptide concentration 2 μM; 1 h at 37 °C; mixture 1 : 1
Experimental: Solution phase hemolysis assays were conducted as described previously.[36]
Fig. S2. […] A) Hemoglobin release […]
erythrocytes were treated with 0.03% v/v triton X-100. Negative control contained only buffer. A total peptide concentration of 2 µM was used in each case. B) Extent of hemolysis after treating freshly washed rabbit erythrocytes with 1:1 of CylLS”:CylLL” at 37 ̊C for 1 h. Data was fit to a […]
(1 picture or pasted object on this page, not shown here)

[6] = In vitro pore formation assay, pyranine-encapsulated liposomes; conditions: total peptide 5 μM; for pore formation activity in liposomes: pH-dependent pyranine fluorescence, DOPC liposomes
Experimental: To investigate the lipid II-dependence of the pore formation activity of bibacillin 1, pyranine-encapsulated liposomes were prepared containing or lacking lipid II and pore formation was monitored via pH-dependent pyranine fluorescence.[79]
This assay was conducted as described elsewhere.[79]

[7] = SDS-PAGE analysis of oligomerization; type: physicochemical; conditions: in the presence of SDS
Experimental: To determine whether bibacillin 1 could quorum sense through an aggregation mechanism, the aggregation propensity of bibacillin 1 was analyzed using SDS-PAGE and dynamic light scattering (DLS). […] Since SDS can influence aggregation, the aggregation of bibacillin 1 was further investigated under SDS-free conditions using DLS (Fig. 6B). Bib1α exists in solution as aggregates that are 159 nm in diameter on average (PDI = 0.224) and Bib1β forms aggregates that are 291 nm in diameter on average (PDI = 0.384). […] Confirmation of this hypothesis will require in vitro studies with Bib1R1/R2.

[8] = system: M. luteus ATCC 4698; assay: Membrane depolarization assay, DiSC3(5); conditions: DiSC3(5) fluorescence; M. luteus OD600 = 0.2; 30 min; peptides individually
Experimental: (B) DiSC3(5) fluorescence signal after incubation of M. luteus (OD600 = 0.2) with Bib1α or Bib1β individually or as a 1 : 1 mixture for 30 min. […] In all cases, a total peptide concentration of 5 μM was used.
The mixture was transferred to a 96-well black plate and the fluorescence of DiSC3(5) was measured using an excitation wavelength of 622 nm and an emission wavelength of 670 nm throughout the experiment. The fluorescence signal was measured for 8 min prior to the addition of peptides. After adding peptides, the fluorescence signal was monitored for 30 min. The maximum fluorescence signal achieved over the entire course of the experiment was considered to be a metric of membrane depolarization activity and was plotted as a function of peptide concentration.

Compound | protection of lipid II from consumption by PBP1b [1] | PDI of aggregates (DLS) [2] | average diameter of aggregates (DLS) [2] [nm] | time after which cells began to recover from treatment [3] [h] | killing activity in time-kill assay ([3]; about 10^6 CFU per mL) | hemolytic activity on an agar plate [4] | hemolysis in solution (hemoglobin release, absorbance at 415 nm) [5] | lipid II dependence of pore formation activity ([6]; DOPC liposomes containing or lacking 0.1 mol% lipid II) | pore formation activity in liposomes [6] | oligomerization by SDS-PAGE [7] | membrane depolarization activity, all concentrations tested [8] | size distribution of aggregates (DLS) [2] | time after treatment at which minimal cell counts were reached ([3]; about 10^6 CFU per mL) [h]
C=C(NC(=O)[C@H](C)NC(=O)[C@@H]1CS[C@H](C)[C@H](N)C(=O)NC(=C)C(=O)N2CCC[C@H]2C(=O)N[C@@H](C)C(=O)N1)C(=O)N[C@@H](C)C(=O)N[C@@H](CCSC)C(=O)N[C@@H](CC(C)C)C(=O)N[C@@H](Cc1ccc(O)cc1)C(=O)N[C@@H](CC(C)C)C(=O)N[C@@H](CCC(N)=O)C(=O)NCC(=O)N[C@H](C(=O)NC(=CC)C(=O)N[C@H](C(=O)NC(=C)C(=O)N[C@@H](CC(C)C)C(=O)NCC(=O)N[C@@H](CC(C)C)C(=O)N[C@@H]1CSC[C@@H](C(=O)O)NC(=O)[C@H](Cc2c[nH]cn2)NC(=O)[C@H](CCSC)NC(=O)[C@H](CCCNC(=N)N)NC1=O)C(C)C)C(C)C [Bib1α] | incapable of protecting lipid II | 0.224 | 159 | 4 | bactericidal | showed hemolytic activity | did not induce hemolysis | somewhat enhanced by the addition of lipid II | showed pore formation activity | oligomeric in the presence of SDS | did not show strong membrane depolarization activity | – | –
C=C(NC(=O)[C@H](Cc1ccccc1)NC(=O)CNC(=O)[C@H](CC(C)C)NC(=O)[C@H](C)NC(=O)[C@H](CC(C)C)NC(=O)CNC(=O)CNC(=O)CNC(=O)[C@@H](NC(=O)[C@H](C)NC(=O)[C@@H]1CS[C@H](C)[C@H](N)C(=O)NC(=CC)C(=O)N2CCC[C@H]2C(=O)N[C@@H](C(C)C)C(=O)N1)[C@@H](C)CC)C(=O)N[C@H](C(=O)N[C@@H]1CSC[C@@H](C(=O)O)NC(=O)[C@H](Cc2ccc(O)cc2)NC(=O)[C@H]([C@@H](C)CC)NC(=O)[C@H](CCCCN)NC1=O)[C@@H](C)CC [Bib1βDha] | – | – | – | – | – | did not show any hemolytic activity beyond that of a negative control | – | – | – | – | – | – | –
CC=C1NC(=O)[C@@H](N)[C@@H](C)SC[C@@H](C(=O)N[C@@H](C)C(=O)N[C@H](C(=O)NCC(=O)NCC(=O)NCC(=O)N[C@@H](CC(C)C)C(=O)N[C@@H](C)C(=O)N[C@@H](CC(C)C)C(=O)NCC(=O)N[C@@H](Cc2ccccc2)C(=O)N[C@@H](CO)C(=O)N[C@H](C(=O)N[C@@H]2CSC[C@@H](C(=O)O)NC(=O)[C@H](Cc3ccc(O)cc3)NC(=O)[C@H]([C@@H](C)CC)NC(=O)[C@H](CCCCN)NC2=O)[C@@H](C)CC)[C@@H](C)CC)NC(=O)[C@H](C(C)C)NC(=O)[C@@H]2CCCN2C1=O [Bib1β] | incapable of protecting lipid II | 0.384 | 291 | – | bactericidal | showed hemolytic activity | did not induce hemolysis | – | did not show pore formation activity | oligomeric in the presence of SDS | did not show strong membrane depolarization activity | bimodal | 8
